According to PMC12048343, “Discovery of a small molecule secreted clusterin enhancer that improves memory in Alzheimer’s disease mice” (npj Drug Discovery, 2025):

Legend:
[1] = system: SH-SY5Y cells; experiment: Cytotoxicity, MultiTox-Fluor (neurotoxicity); type: cell-based, human; settings: up to 50 µM
[2] = system: ApoE4TR-5XFAD murine model of AD; experiment: Subchronic two-week oral study in ApoE4TR-5XFAD mice (hippocampus biomarkers, proteomics); type: in vivo, mouse; settings: oral 15 mg/kg BID, two weeks, vs vehicle
Procedure: (§1) Brain tissue was homogenized and diluted to a protein concentration of 50 ng/mL. The Mouse Clusterin ELISA Kit (Cat#ab199079, Abcam) was performed according to the manufacturer’s protocol.
(§2) Additional assays: The Aβ1-42 ELISA assay was performed on hippocampus brain homogenate according to the manufacturer’s protocol (Fisher KHB3441). Humanin in cell culture lysate was quantify by ELISA assay, according to the manufacturer’s protocol (MyBioSourc Cat# MBS7607247). SirT1 in cell culture lysate was quantify using AlphaLISA. Cell lysate (2 μL) was added to a 384-well proxy plate preloaded with 2 µL anti-SiRT1 antibody mixture (ABCAM catalog AB110304, biotinylated (10 nM) and ABCAM catalog AB104833, acceptor bead conjugated (50 µg/mL, Cat#6772001, Perkin Elmer)) was added and incubated at room temperature for 1 hour. AlphaScreen Streptavidin Donor beads (2 µL, Cat#6760002S, Perkin Elmer) were added, incubated for an additional 30 min in the dark, and the plate was read in an Envision plate reader.
(§3) All procedures were performed in accordance with protocols approved by the UCLA Institutional Animal Care and Use Committee (IACUC) and guidelines of the NIH. Mouse strains used were C57BL/6 J (Black 6, Jackson Laboratory; JAX stock #000564). All non-AD mice were 4 to 5 mo old at the time of the experiments. […]

[3] = system: U-87 MG cells; experiment: Cytotoxicity, MultiTox-Fluor (CNS gliotoxicity); settings: U-87 MG, up to 50 µM
Text: Cell viability and toxicity were simultaneously assessed using the MultiTox-Fluor Multiplex Cytotoxicity Assay (Cat# PRG9200, Fisher Scientific) according to the manufacturer’s protocol.

[4] = molecular target: hERG potassium channel (Homo sapiens, UniProt Q12809); experiment: hERG potassium channel inhibition assay
[5] = system: 3xTg-AD murine model of AD; experiment: Chronic 6-week oral study in 3xTg-AD mice (hippocampus biomarkers, proteomics); type: in vivo, mouse; settings: oral 15 mg/kg BID, 6 weeks, vs vehicle
Procedure: as §1
Hippocampal tissue was sonicated in TPER buffer containing 1x protease and phosphatase inhibitors (Fisher catalog # 78429) on ice. Samples were centrifuged at 16000xg for 10 min at 4 degrees C. A BCA protein quantification assay was performed on each sample in duplicate. Aliquots of 40 uL were stored in the -80 freezer.
A sample of brain homogenate (8.8 mg/mL) was tested at 10 dilutions using the Tau AlphaLISA (Revvity Cat#AL271C) (32, 64, 128, 256, 512, 1024, 2048, 4096, 8192, 16384-fold) and, separately, the anti-tau phosphor AT8 and S396 (Fisher catalogs MN1020B and 44-752 G, respectively) antibodies (2, 4, 8, 16, 32, 64, 128, 256, 512, 1024-fold). AlphaLISA assays were by loading 2 µL of the anti-tau acceptor bead mixed with anti-tau or anti-ptau biotinylate antibodies in the 384-well plate, then 2 uL sample was loaded and incubated for 1 h at room temperature. AlphaScreen Streptavidin Donor beads (2 µL, Cat#6760002S, Perkin Elmer) were added, incubated for an additional 30 minutes in the dark, and the plate was read in an Envision plate reader.
as §2, §3

Sequence of hERG potassium channel (Q12809 whole entry): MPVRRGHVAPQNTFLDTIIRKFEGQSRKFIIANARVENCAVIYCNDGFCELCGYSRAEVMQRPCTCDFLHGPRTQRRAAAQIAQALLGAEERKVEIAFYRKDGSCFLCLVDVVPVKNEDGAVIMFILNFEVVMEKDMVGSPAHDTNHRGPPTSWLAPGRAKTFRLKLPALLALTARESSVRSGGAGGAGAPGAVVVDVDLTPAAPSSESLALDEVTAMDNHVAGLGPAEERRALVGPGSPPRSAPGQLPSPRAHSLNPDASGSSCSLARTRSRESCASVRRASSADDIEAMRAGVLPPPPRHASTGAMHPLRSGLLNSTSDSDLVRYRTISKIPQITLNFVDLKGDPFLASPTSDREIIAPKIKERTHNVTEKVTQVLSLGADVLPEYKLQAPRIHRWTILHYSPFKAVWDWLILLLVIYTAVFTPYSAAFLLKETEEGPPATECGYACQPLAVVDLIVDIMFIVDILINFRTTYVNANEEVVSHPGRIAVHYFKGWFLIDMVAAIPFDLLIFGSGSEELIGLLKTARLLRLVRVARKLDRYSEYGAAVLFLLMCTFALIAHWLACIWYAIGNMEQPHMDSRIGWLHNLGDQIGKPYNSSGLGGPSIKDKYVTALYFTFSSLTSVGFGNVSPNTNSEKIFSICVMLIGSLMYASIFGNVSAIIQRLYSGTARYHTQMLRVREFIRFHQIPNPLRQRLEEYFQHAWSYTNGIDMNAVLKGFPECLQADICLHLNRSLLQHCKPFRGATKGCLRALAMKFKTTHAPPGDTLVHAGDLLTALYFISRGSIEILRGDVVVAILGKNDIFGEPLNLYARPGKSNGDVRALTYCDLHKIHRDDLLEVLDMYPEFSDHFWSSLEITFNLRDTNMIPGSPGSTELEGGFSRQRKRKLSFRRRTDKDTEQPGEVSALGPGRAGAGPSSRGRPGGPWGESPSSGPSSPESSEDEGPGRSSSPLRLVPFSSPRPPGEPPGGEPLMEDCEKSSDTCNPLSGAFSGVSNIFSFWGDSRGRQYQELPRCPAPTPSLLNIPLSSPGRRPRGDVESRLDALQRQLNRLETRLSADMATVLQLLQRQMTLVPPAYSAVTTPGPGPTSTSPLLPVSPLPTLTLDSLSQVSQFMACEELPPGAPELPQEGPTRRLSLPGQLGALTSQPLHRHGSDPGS

## Cc1sc2c(c1C)C(c1ccc(Cl)cc1)=N[C@@H](CC(=O)OC1CC1)c1nnc(C)n1-2 [DDL-357]
[1]
  Ctox: ≥ 50 µM
[2]
  Aβ1-42 in brain: the difference did not reach significance
  sCLU levels in the hippocampus: significant increase
[3]
  Ctox: ≥ 50 µM
[4]
  EC50: > 100 µM
[5]; hippocampus
  reduction of tau phosphorylation at Ser396 (p-tau/total tau): significant
  tau phosphorylation at Ser202/Thr205 (p-tau/total tau): lower, but not significantly so
[5]
  Aβ1-42 levels in brain: the differences were not significant
  sCLU levels in brain: the differences were not significant
